Data published in patent publication US20240189449A1, “LIPID NANOPARTICLES AND POLYNUCLEOTIDES ENCODING ORNITHINE TRANSCARBAMYLASE FOR THE TREATMENT OF ORNITHINE TRANSCARBAMYLASE DEFICIENCY” (ModernaTX, Inc., priority 2021, published 2024).
Marks after values point to notes of the source that are not given here.

Assays:
CD-1 mice [1] = assay: hEPO expression in serum after IV lipid nanoparticles with hEPO mRNA, CD-1 mice; assay type: in vivo; conditions: LNP with DSPC, cholesterol, Compound I; for Mean 6 hr hEPO Concentration: serum 6 hours after injection
Experimental: To assess potency of expression and metabolic stability of lipids of the disclosure, hepatocyte protein expression (hEPO) was measured following administration to mice of a nanoparticle of the disclosure.
Lipid nanoparticles including DSPC as a phospholipid, cholesterol as a structural lipid, Compound I as a PEG lipid, an ionizable amino lipid of Formula (II), and an mRNA encoding hEPO were intravenously administered to CD-1 mice. The concentration of hEPO in serum was tested at 6 hours after injection.

CD-1 mice [2] = assay: Parent lipid remaining in liver at 24 h, CD-1 mice (hEPO mRNA LNPs); assay type: in vivo; conditions: for Approx. Percent Total Dose of Parent Lipid Remaining at 24 h: calculation assumes a 25 g mouse with a 1.5 g liver

| Parent Lipid Remaining (nmol/g liver tissue) at 24 h (CD-1 mice [2]) [nmol/g liver tissue] | Approx. Percent Total Dose of Parent Lipid Remaining at 24 h (CD-1 mice [2]) | SMILES | hEPO AUC (CD-1 mice [1]) | Mean 6 hr hEPO Concentration (CD-1 mice [1]) [mIU/mL] |
| --- | --- | --- | --- | --- |
| 51 ± 4 | 53% | CCCCCCCCC(CCCCCC)COC(=O)CCCCCN(CCCCCCCC(=O)OC(CC)CCCCCCCC)CCCNc1c(NC)c(=O)c1=O (stereo not drawn) [Compound 15] | 4.31E+07 | 2933644 |
| 77 ± 3 | 79% | CCCCCCCCC(CCCCCCCC)OC(=O)CCCCCCCN(CCCCCCCC(=O)OCC(CCCCC)CCCCCCC)CCCNc1c(NC)c(=O)c1=O (stereo not drawn) [Compound 16] | 2.18E+07 | 1461176 |
| 35 ± 5 | 36% | CCCCCCCCC(CCCCCCCC)OC(=O)CCCCCCCN(CCCCCCCC(=O)OCCC(CCCCCC)C(C)C)CCCNc1c(NC)c(=O)c1=O (stereo not drawn) [Compound 17] | 2.61E+07 | 1777875 |
| 73 ± 6 | 75% | CCCCCCCCC(CCCCCCCC)OC(=O)CCCCCCCN(CCCCCCCC(=O)OCC(CCCCCCC)C(C)C)CCCNc1c(NC)c(=O)c1=O (stereo not drawn) [Compound 19] | 3.11E+07 | 2089101 |
| 65 ± 5 | 67% | CCCCCCCCC(CCCCCCCC)OC(=O)CCCCCCCN(CCCCCCCC(=O)OCCC(CCCC)CCCCCC)CCCNc1c(NC)c(=O)c1=O (stereo not drawn) [Compound 20] | 2.13E+07 | 1414856 |
| 13 ± 2 | 9% | CCCCCCCCC(CCCCCCCC)OC(=O)CCCCCCCN(CCO)CCCCCCCC(=O)OCCC(CCCCCC)CCCCCC [Compound 21] | 7.29E+06 | 458772 |
| 24 ± 3 | 18% | CCCCCCC(CCCCCC)CCOC(=O)CCCCCCCN(CCO)CCCCCCCC(=O)OCCC(CCCCCC)CCCCCC [Compound 23] | 1.40E+07 | 847586 |
| 141 ± 15 | >95%^b | CCCCCCCCC(CCCCCCCC)OC(=O)CCCCCCCN(CCCCCCCC(=O)OCCC(CCCCCC)CCCCCC)CCCNc1c(NC)c(=O)c1=O [Compound 26] | 7.52E+06 | 496951 |
| 58 ± 7 | 60% | CCCCCCC(CCCCCC)CCOC(=O)CCCCCCCN(CCCCCCCC(=O)OCCC(CCCCCC)CCCCCC)CCCNc1c(NC)c(=O)c1=O [Compound 28] | 1.44E+07 | 938332 |
| 66 ± 16 | 68% | CCCCCCCCC(CCCCCCCC)OC(=O)CCCCCCCN(CCCCCCCC(=O)OCCC(CCCCC)CCCCC)CCCNc1c(NC)c(=O)c1=O [Compound 29] | 1.23E+07 | 808734 |
| 2 ± 0.6 | <0.1% | CCCCCCCCC(CCCCCCCC)OC(=O)CCCCCCCN(CCO)CCCCCCCC(=O)OCCCC(CCCCC)CCCCC [Compound 31] | 7.72E+06 | 517841 |
| 69 ± 17 | 71% | CCCCCCCCC(CCCCCCCC)OC(=O)CCCCCCCN(CCCCCCCC(=O)OCCCC(CCCCC)CCCCC)CCCNc1c(NC)c(=O)c1=O [Compound 32] | 1.63E+06 | 111656 |
| 0.5 ± 0.3 | <0.1% | CCCCCC(CCCCC)CCCOC(=O)CCCCCCCN(CCO)CCCCCCCC(=O)OCCCC(CCCCC)CCCCC [Compound 33] | 5.89E+06 | 389395 |
| 12 ± 2 | 12% | CCCCCC(CCCCC)CCCOC(=O)CCCCCCCN(CCCCCCCC(=O)OCCCC(CCCCC)CCCCC)CCCNc1c(NC)c(=O)c1=O [Compound 34] | 3.01E+06 | 205437 |
| <0.1 | <0.1% | CCCCCCCCC(CCCCCCCC)OC(=O)CCCCCCCN(CCO)CCCCCCCC(=O)OCCC1CCC(CC)CC1 (stereo not drawn) [Compound 35] | 1.72E+06 | 106485 |
| <0.1 | <0.1% | CCCCCCCCC(CCCCCCCC)OC(=O)CCCCCCCN(CCO)CCCCCCCC(=O)OCCC1CCC(CC)C1 (stereo not drawn) [Compound 37] | 1.25E+06 | 85052 |
| 4 ± 1 | 4% | CCCCCCCCC(CCCCCCCC)OC(=O)CCCCCCCN(CCCCCCCC(=O)OCCC1CCC(CCC)CC1)CCCNc1c(NC)c(=O)c1=O (stereo not drawn) [Compound 39] | 1.94E+06 | 129750 |
| 3 ± 0.3 | 3% | CCCCCCCCC(CCCCCCCC)OC(=O)CCCCCCCN(CCCCCCCC(=O)OCCC1CCC(CC)C1)CCCNc1c(NC)c(=O)c1=O (stereo not drawn) [Compound 40] | 4.64E+06 | 303957 |
| – | – | CCCCCC(CCCCC)CCOC(=O)CCCCCCCN(CCCO)CCCCCCCC(=O)OCCC(CCCCC)CCCCC [Compound 42] | – | 1428145 |
| – | – | CCCCCC(CCCCC)CCOC(=O)CCCCCCCN(CCCCO)CCCCCCCC(=O)OCCC(CCCCC)CCCCC [Compound 44] | – | 1273871 |
| – | – | CCCCCCCCC(CCCCCCCC)OC(=O)CCCCCCCN(CCCO)CCCCCCCC(=O)OCCC(CCCC)CCCC [Compound 49] | – | 2385524 |
| – | – | CCCCCCCCC(CCCCCCCC)OC(=O)CCCCCCCN(CCCCO)CCCCCCCC(=O)OCCC(CCCC)CCCC [Compound 50] | – | 2617164 |
| – | – | CCCCCC(CCCCC)CCOC(=O)CCCCCCCN(CCO)CCCCCCCC(=O)OCCC(CCC)CCC [Compound 67] | – | 969620 |
| – | – | CCCCCC(CCCCC)OC(=O)CCCCCCCN(CCO)CCCCCCCC(=O)OCCC(CCC)CCC [Compound 68] | – | 488014 |
| – | – | CCCCC(CCCC)CCOC(=O)CCCCCCCN(CCO)CCCCCCCC(=O)OCCC(CCCC)CCCC [Compound 69] | – | 1572094 |
| – | – | CCCCCC(CCCCC)OC(=O)CCCCCCCN(CCO)CCCCCCCC(=O)OCCC(CCCC)CCCC [Compound 70] | – | 1479577 |
| – | – | CCCCCCC(CCCCCC)OC(=O)CCCCCCCN(CCO)CCCCCCCC(=O)OCCC(CCC)CCC [Compound 71] | – | 1921281 |
